By IC50 is commonly meant the point on the concentration scale where inhibition reaches its midpoint.

Here are results for 14 compounds from patent US20250145665A1, “MACROCYCLIC PEPTIDES USEFUL AS MODULATORS OF TNF ALPHA” (Bristol-Myers Squibb Company, priority 2023, published 2025).

The structures appear in SMILES notation. Starred links: 1 amine or outer side, 2 acyl side, 3 side chain; linkers in the order of their positions; H or OH if unused. Positions of bridges follow the written chain, without caps; N, C: chain ends. Non-standard residues stand in square brackets, D forms with d. Residues, ends and D or L forms follow the SMILES beside them. *: point of attachment. Bip(4'-NHCO-C6H4-3-CH2COOH) = N[C@@H](Cc1ccc(-c2ccc(NC(=O)c3cccc(CC(=O)O)c3)cc2)cc1)C(=O)O; Bip(4'-NHCO-C6H4-4-CH2COOH) = N[C@@H](Cc1ccc(-c2ccc(NC(=O)c3ccc(CC(=O)O)cc3)cc2)cc1)C(=O)O; X21 = N=C(NCCC[C@@H](N[*:1])C(=O)[*:2])NC[C@H](O)[C@@H](O)[C@@H](O)CO; Bip(4'-NH) = O=C([C@H](Cc1ccc(-c2ccc(N[*:3])cc2)cc1)N[*:1])[*:2]; Indazole3carbonyl(1-CH2COOH) = O=C(O)Cn1nc(C(=O)*)c2ccccc21; Bip(4'-COOH) = N[C@@H](Cc1ccc(-c2ccc(C(=O)O)cc2)cc1)C(=O)O; Bip(4'-NHAc) = CC(=O)Nc1ccc(-c2ccc(C[C@H](N)C(=O)O)cc2)cc1; Indole3carbonyl(1-CH2COOH) = O=C(O)Cn1cc(C(=O)*)c2ccccc21; dArg(ω-Bn) = N=C(NCCC[C@@H](N)C(=O)O)NCc1ccccc1; Ala(morpholin-4-yl) = N[C@@H](CN1CCOCC1)C(=O)O; Benzoyl(3-OCH2COOH) = O=C(O)COc1cccc(C(=O)*)c1; Phe(3-CONH2) = NC(=O)c1cccc(C[C@H](N)C(=O)O)c1; Bip = N[C@@H](Cc1ccc(-c2ccccc2)cc1)C(=O)O; 2Pal = N[C@@H](Cc1ccccn1)C(=O)O; 2Thi = N[C@@H](Cc1cccs1)C(=O)O; Cha = N[C@@H](CC1CCCCC1)C(=O)O; Tle = CC(C)(C)[C@H](N)C(=O)O; Sar = CNCC(=O)O Some results are limits rather than exact numbers.

Chain of TNFα (P01375 77-233 limits assumed): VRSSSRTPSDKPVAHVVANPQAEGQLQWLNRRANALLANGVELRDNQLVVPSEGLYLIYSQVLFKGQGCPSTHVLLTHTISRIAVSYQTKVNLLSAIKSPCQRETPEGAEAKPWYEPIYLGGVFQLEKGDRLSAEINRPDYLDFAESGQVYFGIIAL

The first test has as its target TNFα (Homo sapiens, UniProt P01375). Put plainly: TNF-Induced HEK-Blue Assay. Format: cell-based.
Settings: not given
In turn, `CC[C@H](C)[C@@H]1NC(=O)[C@@H](CCCNC(=N)NC[C@H](O)[C@@H](O)[C@@H](O)CO)NC(=O)[C@H](CC(=O)O)NC(=O)[C@@H]2CCCN2C(=O)CN(C)C(=O)[C@H](Cc2ccc(-c3ccc(NC(=O)c4nn(CC(=O)O)c5ccccc45)cc3)cc2)NC(=O)[C@H](Cc2ccc(-c3ccccc3)cc2)NC(=O)[C@H](CN2CCOCC2)NC(=O)CSC[C@@H](C(=O)NCC(N)=O)NC(=O)[C@H](CC(C)C)NC(=O)[C@H](Cc2cnc[nH]2)NC(=O)[C@H](C(C)C)NC(=O)[C@@H]2CCCN2C1=O` [Example 599] ({CH2CO}-[Ala(morpholin-4-yl)][Bip][Bip(4'-NH)](Indazole3carbonyl(1-CH2COOH))[Sar]PD[X21]IPVHLCG-NH2; thioether N-13) displayed an IC50 of under 50 nM.
Regarding `CC(C)C[C@@H]1NC(=O)[C@H](Cc2cccc(C(N)=O)c2)NC(=O)[C@H](C(C)C)NC(=O)[C@@H]2CCCN2C(=O)[C@H](C(C)C)NC(=O)[C@@H](CCCNC(=N)NCc2ccccc2)NC(=O)[C@H](CC(=O)O)NC(=O)[C@H](Cc2ccc(O)cc2)NC(=O)CN(C)C(=O)[C@H](Cc2ccc(-c3ccc(NC(=O)c4nn(CC(=O)O)c5ccccc45)cc3)cc2)NC(=O)[C@H](Cc2ccc(-c3ccccc3)cc2)NC(=O)[C@H](CN2CCOCC2)NC(=O)CSC[C@@H](C(=O)NCC(N)=O)NC1=O` [Example 600] ({CH2CO}-[Ala(morpholin-4-yl)][Bip][Bip(4'-NH)](Indazole3carbonyl(1-CH2COOH))[Sar]YD[dArg(ω-Bn)]VPV[Phe(3-CONH2)]LCG-NH2; thioether N-13), the IC50 was under 50 nM.
Take `CC(C)C[C@@H]1NC(=O)[C@H](Cc2cccc(C(N)=O)c2)NC(=O)[C@H](C(C)C)NC(=O)[C@@H]2CCCN2C(=O)[C@H](C(C)C)NC(=O)[C@@H](CCCNC(=N)NCc2ccccc2)NC(=O)[C@H](CC(=O)O)NC(=O)[C@H](Cc2ccc(O)cc2)NC(=O)CN(C)C(=O)[C@H](Cc2ccc(-c3ccc(NC(=O)c4cn(CC(=O)O)c5ccccc45)cc3)cc2)NC(=O)[C@H](Cc2ccc(-c3ccccc3)cc2)NC(=O)[C@H](CN2CCOCC2)NC(=O)CSC[C@@H](C(=O)NCC(N)=O)NC1=O` [Example 601] ({CH2CO}-[Ala(morpholin-4-yl)][Bip][Bip(4'-NH)](Indole3carbonyl(1-CH2COOH))[Sar]YD[dArg(ω-Bn)]VPV[Phe(3-CONH2)]LCG-NH2; thioether N-13): the concentration for half-maximal inhibition (IC50) is under 50 nM.

The same test, now with this note: HEK-Blue-CD40L cells, NF-kB-driven secreted alkaline phosphatase reporter; TNFα 0.5 ng/ml; 18 h; read-out: TNF induced HEK-Blue assay IC50 value.
Consider `CC(C)C[C@@H]1NC(=O)[C@H](Cc2cccc(C(N)=O)c2)NC(=O)[C@H](C(C)C)NC(=O)[C@@H]2CCCN2C(=O)[C@H](C(C)C)NC(=O)[C@@H](CCCNC(=N)NCc2ccccc2)NC(=O)[C@H](CC(=O)O)NC(=O)[C@H](Cc2ccc(O)cc2)NC(=O)CN(C)C(=O)[C@H](Cc2ccc(-c3ccc(NC(=O)c4ccc(CC(=O)O)cc4)cc3)cc2)NC(=O)[C@H](Cc2ccc(-c3ccccc3)cc2)NC(=O)[C@H](CN2CCOCC2)NC(=O)CSC[C@@H](C(=O)NCC(N)=O)NC1=O` [Example 602] ({CH2CO}-[Ala(morpholin-4-yl)][Bip][Bip(4'-NHCO-C6H4-4-CH2COOH)][Sar]YD[dArg(ω-Bn)]VPV[Phe(3-CONH2)]LCG-NH2; thioether N-13), for which the IC50 is under 50 nM.
Regarding `CC(C)C[C@@H]1NC(=O)[C@H](Cc2cccc(C(N)=O)c2)NC(=O)[C@H](C(C)C)NC(=O)[C@@H]2CCCN2C(=O)[C@H](C(C)C)NC(=O)[C@@H](CCCNC(=N)NCc2ccccc2)NC(=O)[C@H](CC(=O)O)NC(=O)[C@H](Cc2ccc(O)cc2)NC(=O)CN(C)C(=O)[C@H](Cc2ccc(-c3ccc(NC(=O)c4cccc(CC(=O)O)c4)cc3)cc2)NC(=O)[C@H](Cc2ccc(-c3ccccc3)cc2)NC(=O)[C@H](CN2CCOCC2)NC(=O)CSC[C@@H](C(=O)NCC(N)=O)NC1=O` [Example 603] ({CH2CO}-[Ala(morpholin-4-yl)][Bip][Bip(4'-NHCO-C6H4-3-CH2COOH)][Sar]YD[dArg(ω-Bn)]VPV[Phe(3-CONH2)]LCG-NH2; thioether N-13), the IC50 is under 50 nM.
In the case of `CC[C@H](C)[C@@H]1NC(=O)[C@@H](CCCNC(=N)N)NC(=O)[C@H](CC(=O)O)NC(=O)[C@H](Cc2ccccn2)NC(=O)CN(C)C(=O)[C@H](Cc2ccc(-c3ccc(NC(C)=O)cc3)cc2)NC(=O)[C@H](Cc2ccc(-c3ccccc3)cc2)NC(=O)[C@H](CN2CCOCC2)NC(=O)CSC[C@@H](C(=O)NCC(N)=O)NC(=O)[C@H](CC(C)C)NC(=O)[C@H](Cc2cccs2)NC(=O)[C@H](C(C)C)NC(=O)[C@@H]2CCCN2C1=O` [Example 604] ({CH2CO}-[Ala(morpholin-4-yl)][Bip][Bip(4'-NHAc)][Sar][2Pal]D[dR]IPV[2Thi]LCG-NH2; thioether N-13), the IC50 is under 50 nM.
For `CC(=O)Nc1ccc(-c2ccc(C[C@@H]3NC(=O)[C@H](Cc4ccc(-c5ccccc5)cc4)NC(=O)[C@H](C(C)(C)C)NC(=O)CSC[C@@H](C(=O)NCC(N)=O)NC(=O)[C@H](CC(C)C)NC(=O)[C@H](Cc4cccs4)NC(=O)[C@H](C(C)C)NC(=O)[C@@H]4CCCN4C(=O)[C@H](C(C)C)NC(=O)[C@@H](CCCNC(=N)N)NC(=O)[C@H](CC(=O)O)NC(=O)[C@H](Cc4ccccn4)NC(=O)CN(C)C3=O)cc2)cc1` [Example 605] ({CH2CO}-[Tle][Bip][Bip(4'-NHAc)][Sar][2Pal]D[dR]VPV[2Thi]LCG-NH2; thioether N-13), the IC50 was in the range of 200 to 2000 nM.
With `CC(C)C[C@@H]1NC(=O)[C@H](Cc2cccs2)NC(=O)[C@H](C(C)C)NC(=O)[C@@H]2CCCN2C(=O)[C@H](C(C)C)NC(=O)[C@@H](CCCNC(=N)N)NC(=O)[C@H](CC(=O)O)NC(=O)[C@H](Cc2ccccn2)NC(=O)CN(C)C(=O)[C@H](Cc2ccc(-c3ccc(NC(=O)c4cccc(OCC(=O)O)c4)cc3)cc2)NC(=O)[C@H](Cc2ccc(-c3ccccc3)cc2)NC(=O)[C@H](CN2CCOCC2)NC(=O)CSC[C@@H](C(=O)NCC(N)=O)NC1=O` [Example 606] ({CH2CO}-[Ala(morpholin-4-yl)][Bip][Bip(4'-NH)](Benzoyl(3-OCH2COOH))[Sar][2Pal]D[dR]VPV[2Thi]LCG-NH2; thioether N-13), the IC50 was under 50 nM.
Regarding `CC(C)C[C@@H]1NC(=O)[C@H](Cc2cccs2)NC(=O)[C@H](C(C)C)NC(=O)[C@@H]2CCCN2C(=O)[C@H](C(C)C)NC(=O)[C@@H](CCCNC(=N)N)NC(=O)[C@H](CC(=O)O)NC(=O)[C@H](Cc2ccccn2)NC(=O)CN(C)C(=O)[C@H](Cc2ccc(-c3ccc(NC(=O)c4ccc(CC(=O)O)cc4)cc3)cc2)NC(=O)[C@H](Cc2ccc(-c3ccccc3)cc2)NC(=O)[C@H](CN2CCOCC2)NC(=O)CSC[C@@H](C(=O)NCC(N)=O)NC1=O` [Example 607] ({CH2CO}-[Ala(morpholin-4-yl)][Bip][Bip(4'-NHCO-C6H4-4-CH2COOH)][Sar][2Pal]D[dR]VPV[2Thi]LCG-NH2; thioether N-13), the IC50 is under 50 nM.
As to `CC(C)C[C@@H]1NC(=O)[C@H](Cc2cccs2)NC(=O)[C@H](C(C)C)NC(=O)[C@@H]2CCCN2C(=O)[C@H](C(C)C)NC(=O)[C@@H](CCCNC(=N)N)NC(=O)[C@H](CC(=O)O)NC(=O)[C@H](Cc2ccccn2)NC(=O)CN(C)C(=O)[C@H](Cc2ccc(-c3ccc(NC(=O)c4cccc(CC(=O)O)c4)cc3)cc2)NC(=O)[C@H](Cc2ccc(-c3ccccc3)cc2)NC(=O)[C@H](CN2CCOCC2)NC(=O)CSC[C@@H](C(=O)NCC(N)=O)NC1=O` [Example 608] ({CH2CO}-[Ala(morpholin-4-yl)][Bip][Bip(4'-NHCO-C6H4-3-CH2COOH)][Sar][2Pal]D[dR]VPV[2Thi]LCG-NH2; thioether N-13), the half-maximal inhibitory concentration (IC50) is under 50 nM.
On the same count and under the same terms, with `CC(C)C[C@@H]1NC(=O)[C@H](Cc2cccs2)NC(=O)[C@H](C(C)C)NC(=O)[C@@H]2CCCN2C(=O)[C@H](C(C)C)NC(=O)[C@@H](CCCNC(=N)N)NC(=O)[C@H](CC(=O)O)NC(=O)[C@H](Cc2ccccn2)NC(=O)CN(C)C(=O)[C@H](Cc2ccc(-c3ccc(NC(=O)c4cccc(OCC(=O)O)c4)cc3)cc2)NC(=O)[C@H](Cc2ccc(-c3ccc(C(=O)O)cc3)cc2)NC(=O)[C@H](CN2CCOCC2)NC(=O)CSC[C@@H](C(=O)NCC(N)=O)NC1=O` [Example 609] ({CH2CO}-[Ala(morpholin-4-yl)][Bip(4'-COOH)][Bip(4'-NH)](Benzoyl(3-OCH2COOH))[Sar][2Pal]D[dR]VPV[2Thi]LCG-NH2; thioether N-13) the figure was under 50 nM; with `CC(C)C[C@@H]1NC(=O)[C@H](Cc2cccs2)NC(=O)[C@H](C(C)C)NC(=O)[C@@H]2CCCN2C(=O)[C@H](C(C)C)NC(=O)[C@@H](CCCNC(=N)N)NC(=O)[C@H](CC(=O)O)NC(=O)[C@H](Cc2ccccn2)NC(=O)CN(C)C(=O)[C@H](Cc2ccc(-c3ccc(NC(=O)c4cccc(CC(=O)O)c4)cc3)cc2)NC(=O)[C@H](Cc2ccc(-c3ccc(C(=O)O)cc3)cc2)NC(=O)[C@H](CN2CCOCC2)NC(=O)CSC[C@@H](C(=O)NCC(N)=O)NC1=O` [Example 610] ({CH2CO}-[Ala(morpholin-4-yl)][Bip(4'-COOH)][Bip(4'-NHCO-C6H4-3-CH2COOH)][Sar][2Pal]D[dR]VPV[2Thi]LCG-NH2; thioether N-13), under 50 nM.
On to `CC(C)C[C@@H]1NC(=O)[C@H](Cc2cccs2)NC(=O)[C@H](C(C)C)NC(=O)[C@@H]2CCCN2C(=O)[C@H](C(C)C)NC(=O)[C@@H](CCCNC(=N)N)NC(=O)[C@H](CC(=O)O)NC(=O)[C@H](Cc2ccccn2)NC(=O)CN(C)C(=O)[C@H](Cc2ccc(-c3ccc(NC(=O)c4ccc(CC(=O)O)cc4)cc3)cc2)NC(=O)[C@H](Cc2ccc(-c3ccc(C(=O)O)cc3)cc2)NC(=O)[C@H](CN2CCOCC2)NC(=O)CSC[C@@H](C(=O)NCC(N)=O)NC1=O` [Example 611] ({CH2CO}-[Ala(morpholin-4-yl)][Bip(4'-COOH)][Bip(4'-NHCO-C6H4-4-CH2COOH)][Sar][2Pal]D[dR]VPV[2Thi]LCG-NH2; thioether N-13), for which the IC50 is under 50 nM.
`CC(C)C[C@@H]1NC(=O)[C@H](Cc2cccs2)NC(=O)[C@H](C(C)C)NC(=O)[C@@H]2CCCN2C(=O)[C@H](C(C)C)NC(=O)[C@@H](CCCNC(=N)N)NC(=O)[C@H](CC(=O)O)NC(=O)[C@H](Cc2ccccn2)NC(=O)CN(C)C(=O)[C@H](Cc2ccc(-c3ccc(NC(=O)c4ccc(CC(=O)O)cc4)cc3)cc2)NC(=O)[C@H](Cc2ccc(-c3ccc(C(=O)O)cc3)cc2)NC(=O)[C@H](CC2CCCCC2)NC(=O)CSC[C@@H](C(=O)NCC(N)=O)NC1=O` [Example 612] ({CH2CO}-[Cha][Bip(4'-COOH)][Bip(4'-NHCO-C6H4-4-CH2COOH)][Sar][2Pal]D[dR]VPV[2Thi]LCG-NH2; thioether N-13): the IC50 is 50 to 200 nM.
